# Assay results as given in patent US7928063B2, “Analogs of human growth hormone-releasing hormone, their preparation and use” (Instytut Farmaceutyczny, priority 2001, dated 2011).
# Where two headings read alike, the source gives them in different places. Square brackets hold non-standard residues; d marks the D form. Peptide text beside a SMILES is read from it. * marks the point of attachment. Desaminotyrosyl = O=C(CCc1ccc(O)cc1)*; hArg = N=C(N)NCCCC[C@H](N)C(=O)O; Agb = N=C(N)NCC[C@H](N)C(=O)O; Agp = N=C(N)NC[C@H](N)C(=O)O; Nle = CCCC[C@H](N)C(=O)O; Orn = NCCC[C@H](N)C(=O)O
# System: trypsin
# Assay: Trypsin digestion test (enzymatic resistance, HPLC)
# Type: in vitro ADME
# Conditions: for remaining at 0.5 h, 0.4 mg/ml / remaining at 1 h, 0.4 mg/ml: isolated enzyme trypsin; for Resistance to trypsin digestion (in words): after 30 minutes
# Method: The compounds prepared were also tested for enzymatic resistance in the trypsin digestion test. […] Subsequently, a trypsin solution was added (100 μl; 0.02 mg/ml; Serva, 36 U/mg). […] An aliquot (500 μl) was withdrawn and diluted with 0.5 M acetic acid (1 ml), then lyophilized. The material obtained was analyzed by HPLC, using a Knauer system with an Eurospher 100 C18 (4.6×250 mm, 5 micron) column. The following solvent systems were used: A, 0.1% TFA in water; […]
# [1] = trypsin, pH 8.5, 37° C., digestion time 30 min., read-out: % Unchanged compound
# [2] = trypsin, pH 8.5, 37° C., digestion time 60 min., read-out: % Unchanged compound
"remaining at 0.5 h, 0.4 mg/ml (pH 8.5) [%]","remaining at 1 h, 0.4 mg/ml (pH 8.5) [%]",Structure (SMILES),Resistance to trypsin digestion (in words),"remaining at 0.5 h, 0.4 mg/ml [1] [%]","remaining at 1 h, 0.4 mg/ml [2] [%]"
86,72,"CCCC[C@H](NC(=O)[C@@H](NC(=O)[C@H](CC(=O)O)NC(=O)[C@H](CCC(N)=O)NC(=O)[C@H](CC(C)C)NC(=O)[C@H](CC(C)C)NC(=O)[C@H](CCNC(=N)N)NC(=O)[C@H](CCNC(=N)N)NC(=O)[C@H](C)NC(=O)[C@H](CO)NC(=O)[C@H](CC(C)C)NC(=O)[C@H](CCC(N)=O)NC(=O)[C@H](C)NC(=O)[C@H](CC(C)C)NC(=O)[C@@H](NC(=O)[C@H](CCNC(=N)N)NC(=O)[C@H](CCNC(=N)N)NC(=O)[C@H](Cc1ccc(O)cc1)NC(=O)[C@H](CO)NC(=O)[C@H](CC(N)=O)NC(=O)[C@@H](NC(=O)[C@H](Cc1ccccc1)NC(=O)[C@@H](NC(=O)[C@H](C)NC(=O)[C@H](CC(=O)O)NC(=O)[C@H](C)NC(=O)CCc1ccc(O)cc1)[C@@H](C)CC)[C@@H](C)O)C(C)C)[C@@H](C)CC)C(=O)N[C@@H](CC(=O)O)C(=O)N[C@@H](CCNC(=N)N)C(N)=O [Compound 3, Dat-Ala-Asp-Ala-Ile-Phe-Thr-Asn-Ser-Tyr^10-Gab-Gab-Val-Leu-Ala-Gln-Leu-Ser-Ala-Gab-Gab-Leu-Leu-Gln-Asp-Ile-Nle-Asp-Gab-NH2] (Desaminotyrosyl-ADAIFTNSY[Agb][Agb]VLAQLSA[Agb][Agb]LLQDI[Nle]D[Agb]-NH2)",,,
85,73,"CCCC[C@H](NC(=O)[C@@H](NC(=O)[C@H](CC(=O)O)NC(=O)[C@H](CCC(N)=O)NC(=O)[C@H](CC(C)C)NC(=O)[C@H](CC(C)C)NC(=O)[C@H](CCCCNC(=N)N)NC(=O)[C@H](CCCCNC(=N)N)NC(=O)[C@H](C)NC(=O)[C@H](CO)NC(=O)[C@H](CC(C)C)NC(=O)[C@H](CCC(N)=O)NC(=O)[C@H](C)NC(=O)[C@H](CC(C)C)NC(=O)[C@@H](NC(=O)[C@H](CCNC(=N)N)NC(=O)[C@H](CCCCNC(=N)N)NC(=O)[C@H](Cc1ccc(O)cc1)NC(=O)[C@H](CO)NC(=O)[C@H](CC(N)=O)NC(=O)[C@@H](NC(=O)[C@H](Cc1ccccc1)NC(=O)[C@@H](NC(=O)[C@H](C)NC(=O)[C@H](CC(=O)O)NC(=O)[C@H](C)NC(=O)CCc1ccc(O)cc1)[C@@H](C)CC)[C@@H](C)O)C(C)C)[C@@H](C)CC)C(=O)N[C@@H](CC(=O)O)C(=O)N[C@H](CCCNC(=N)N)C(N)=O [Compound 6, Dat-Ala-Asp-Ala-Ile-Phe-Thr-Asn-Ser-Tyr^10-hArg-Gab-Val-Leu-Ala-Gln-Leu-Ser-Ala-hArg-hArg-Leu-Leu-Gln-Asp-Ile-Nle-Asp-D-Arg-NH2] (Desaminotyrosyl-ADAIFTNSY[hArg][Agb]VLAQLSA[hArg][hArg]LLQDI[Nle]D[dR]-NH2)",,,
,,"CCCC[C@H](NC(=O)[C@@H](NC(=O)[C@H](CC(=O)O)NC(=O)[C@H](CCC(N)=O)NC(=O)[C@H](CC(C)C)NC(=O)[C@H](CC(C)C)NC(=O)[C@H](CNC(=N)N)NC(=O)[C@H](CCCCNC(=N)N)NC(=O)[C@H](C)NC(=O)[C@H](CO)NC(=O)[C@H](CC(C)C)NC(=O)[C@H](CCC(N)=O)NC(=O)[C@H](C)NC(=O)[C@H](CC(C)C)NC(=O)[C@@H](NC(=O)[C@H](CNC(=N)N)NC(=O)[C@H](CNC(=N)N)NC(=O)[C@H](Cc1ccc(O)cc1)NC(=O)[C@H](CO)NC(=O)[C@H](CC(N)=O)NC(=O)[C@@H](NC(=O)[C@H](Cc1ccccc1)NC(=O)[C@@H](NC(=O)[C@H](C)NC(=O)[C@H](CC(=O)O)NC(=O)[C@H](C)NC(=O)CCc1ccc(O)cc1)[C@@H](C)CC)[C@@H](C)O)C(C)C)[C@@H](C)CC)C(=O)N[C@@H](CC(=O)O)C(=O)N[C@@H](CNC(=N)N)C(N)=O [Compound 8, Dat-Ala-Asp-Ala-Ile-Phe-Thr-Asn-Ser-Tyr^10-Gap-Gap-Val-Leu-Ala-Gln-Leu-Ser-Ala-hArg-Gap-Leu-Leu-Gln-Asp-Ile-Nle-Asp-Gap-NH2] (Desaminotyrosyl-ADAIFTNSY[Agp][Agp]VLAQLSA[hArg][Agp]LLQDI[Nle]D[Agp]-NH2)",unchanged,> 99,> 99
,,"CCCC[C@H](NC(=O)[C@@H](NC(=O)[C@H](CC(=O)O)NC(=O)[C@H](CCC(N)=O)NC(=O)[C@H](CC(C)C)NC(=O)[C@H](CC(C)C)NC(=O)[C@H](CCCN)NC(=O)[C@H](CCCCNC(=N)N)NC(=O)[C@H](C)NC(=O)[C@H](CO)NC(=O)[C@H](CC(C)C)NC(=O)[C@H](CCC(N)=O)NC(=O)[C@H](C)NC(=O)[C@H](CC(C)C)NC(=O)[C@@H](NC(=O)[C@H](CCCN)NC(=O)[C@H](CCCCNC(=N)N)NC(=O)[C@H](Cc1ccc(O)cc1)NC(=O)[C@H](CO)NC(=O)[C@H](CC(N)=O)NC(=O)[C@@H](NC(=O)[C@H](Cc1ccccc1)NC(=O)[C@@H](NC(=O)[C@H](C)NC(=O)[C@H](CC(=O)O)NC(=O)[C@H](C)NC(=O)CCc1ccc(O)cc1)[C@@H](C)CC)[C@@H](C)O)C(C)C)[C@@H](C)CC)C(=O)N[C@@H](CC(=O)O)C(=O)N[C@@H](CCCCNC(=N)N)C(N)=O [Compound 2, Dat-Ala-Asp-Ala-Ile-Phe-Thr-Asn-Ser-Tyr^10-hArg-Orn-Val-Leu-Ala-Gln-Leu-Ser-Ala-hArg^20-Orn-Leu-Leu-Gln-Asp-Ile-Nle-Asp-hArg^29-NH2] (Desaminotyrosyl-ADAIFTNSY[hArg][Orn]VLAQLSA[hArg][Orn]LLQDI[Nle]D[hArg]-NH2)",unchanged,> 99,> 99
,,"CCCC[C@H](NC(=O)[C@@H](NC(=O)[C@H](CC(=O)O)NC(=O)[C@H](CCC(N)=O)NC(=O)[C@H](CC(C)C)NC(=O)[C@H](CC(C)C)NC(=O)[C@H](CCCCNC(=N)N)NC(=O)[C@H](CCCCNC(=N)N)NC(=O)[C@H](C)NC(=O)[C@H](CO)NC(=O)[C@H](CC(C)C)NC(=O)[C@H](CCC(N)=O)NC(=O)[C@H](C)NC(=O)[C@H](CC(C)C)NC(=O)[C@@H](NC(=O)[C@H](CCCCNC(=N)N)NC(=O)[C@H](CCNC(=N)N)NC(=O)[C@H](Cc1ccc(O)cc1)NC(=O)[C@H](CO)NC(=O)[C@H](CC(N)=O)NC(=O)[C@@H](NC(=O)[C@H](Cc1ccccc1)NC(=O)[C@@H](NC(=O)[C@H](C)NC(=O)[C@H](CC(=O)O)NC(=O)[C@H](C)NC(=O)CCc1ccc(O)cc1)[C@@H](C)CC)[C@@H](C)O)C(C)C)[C@@H](C)CC)C(=O)N[C@@H](CC(=O)O)C(=O)N[C@H](CCCNC(=N)N)C(N)=O [Compound 5, Dat-Ala-Asp-Ala-Ile-Phe-Thr-Asn-Ser-Tyr^10-Gab-hArg-Val-Leu-Ala-Gln-Leu-Ser-Ala-hArg-hArg-Leu-Leu-Gln-Asp-Ile-Nle-Asp-D-Arg-NH2] (Desaminotyrosyl-ADAIFTNSY[Agb][hArg]VLAQLSA[hArg][hArg]LLQDI[Nle]D[dR]-NH2)",,80,51
